Measured values taken from ChEMBL document CHEMBL1142899, “4-amino-5-aryl-6-arylethynylpyrimidines: structure-activity relationships of non-nucleoside adenosine kinase inhibitors” (Bioorg Med Chem, 2007).
Calls of active or inactive are those of the source. The calls are words filed in the database; no cut-off is given here.

How the values were obtained:
[1] = Half life in rat at 5 umol/kg, iv; type: ADME, organism-based; conditions: in vivo
[2] = Bioavailability in rat at 5 umol/kg, po; type: ADME, organism-based; conditions: in vivo
[3] = Metabolic stability in rat hepatocyte after 24 hrs; type: ADME, cell-based; conditions: hepatocytes, read-out: Stability
[4] = Plasma clearance in rat at 5 umol/kg, iv; type: ADME, organism-based
Rattus norvegicus [5] = assay: Reduction of formalin-induced nociception in rat at 10 umol/kg, ip by paw flinching test; type: functional; parameters: scale not given: the % may be the effect or the level left
[6] = Volume of distribution in rat at 5 umol/kg, iv; type: ADME, organism-based; conditions: in vivo, read-out: Vbeta
Adenosine kinase [7] = target: T1, Adenosine kinase (Homo sapiens, UniProt P55263); assay: Inhibition of cytosolic adenosine kinase
T1 sequence (P55263 whole entry): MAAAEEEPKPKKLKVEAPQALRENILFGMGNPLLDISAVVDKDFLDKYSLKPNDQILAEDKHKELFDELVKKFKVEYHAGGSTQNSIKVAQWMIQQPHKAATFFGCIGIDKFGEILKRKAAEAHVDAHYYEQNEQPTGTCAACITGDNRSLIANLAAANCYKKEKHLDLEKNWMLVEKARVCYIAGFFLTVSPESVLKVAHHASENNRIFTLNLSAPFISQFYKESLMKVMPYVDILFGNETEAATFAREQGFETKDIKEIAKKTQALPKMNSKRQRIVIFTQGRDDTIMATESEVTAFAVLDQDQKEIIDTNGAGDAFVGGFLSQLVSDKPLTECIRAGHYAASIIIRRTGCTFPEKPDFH

[8] = Cmax in rat at 5 umol/kg, po; type: ADME, organism-based; parameters: dose 5 umol/kg, route oral; conditions: in vivo
[9] = Metabolic stability in human liver microsomes after 1 hr; type: ADME, Microsome; conditions: read-out: Stability
Mus musculus = assay: Analgesic activity in mouse assessed as maximal protective effect at 30 umol/kg, ip by hot plate test; type: functional
Adenosine kinase [10] = target: T1, Adenosine kinase; assay: Inhibition of adenosine kinase in intact cells assessed as adenosine phosphorylation; type: functional, cell-based
Rattus norvegicus [11] = organism: Rattus norvegicus; assay: Analgesic activity in spinal nerve ligated Sprague-Dawley rat by chung assay neuropathic pain animal model; type: functional, organism-based
Rattus norvegicus [12] = assay: Reduction of formalin-induced nociception in rat upto 30 umol/kg, ip by paw flinching test; type: functional, organism-based

SMILES | IC50 (Adenosine kinase [7]) | IC50 (Adenosine kinase [10]) | further results
CN(C)c1ccc(-c2c(N)ncnc2C#Cc2ccc(N3CCOCC3)nc2)cc1 | 2 nM | – | half-life [1]: 30 min; bioavailability [2]: 9%; remaining at 24 h [3]: 21%; clearance [4]: 16.7 mL/min/kg; Activity (Rattus norvegicus [5]): 44%; Vd [6]: 0.7 L/kg; Cmax [8]: 80 ng/mL; remaining at 1 h [9]: 74%; Activity (Mus musculus): 100%
Nc1ncnc(C#Cc2cnc(N3CCOCC3)nc2)c1-c1ccc(Cl)cc1 | 8 nM | 200 nM | Activity (Rattus norvegicus [5]): 36%; Activity (Rattus norvegicus [11]): inactive; Activity (Mus musculus): 100%
CN(C)c1ccc(C#Cc2ncnc(N3CCNCC3)c2-c2ccc(Cl)cc2)cc1 | 8 nM | > 1000 nM | –
Nc1ncnc(C#Cc2ccc(N3CCOCC3)cc2)c1-c1ccc(Cl)cc1 | 17 nM | 275 nM | Activity (Rattus norvegicus [5]): 20%; Activity (Mus musculus): 67%
CN(C)c1ccc(C#Cc2ncnc(N)c2-c2ccccc2Cl)cc1 | 75 nM | 700 nM | –
CN(C)c1ccc(C#Cc2ncnc(N)c2-c2ccc(Cl)cc2)cn1 | – | – | Activity (Rattus norvegicus [5]): 20%; Activity (Rattus norvegicus [11]): inactive; Activity (Mus musculus): 73%
Cc1ccc(-c2c(N)ncnc2C#Cc2ccc(N(C)C)cc2)cc1 | 13 nM | 330 nM | –
CN(C)c1ccc(C#Cc2ncnc(N3CCOCC3)c2-c2ccc(Cl)cc2)cc1 | 6 nM | 970 nM | –
Nc1ncnc(C#Cc2ccc(N3CCOCC3)nc2)c1-c1ccc(Cl)cc1 | 3 nM | 58 nM | Activity (Rattus norvegicus [5]): 29%; Activity (Rattus norvegicus [11]): inactive; Activity (Mus musculus): 100%
Cc1nc(N)c(-c2ccccc2)c(C#Cc2ccc(N(C)C)cc2)n1 | > 1000 nM | – | –
C#Cc1ncnc(N)c1-c1ccc2c(c1)OCO2 | > 1000 nM | – | –
CN(C)c1ccc(C#Cc2ncnc(N)c2C(c2ccccc2)c2ccccc2)cc1 | 600 nM | – | –
CN(C)c1ccc(C#Cc2ncnc(N)c2-c2ccccc2)cc1 | – | > 1000 nM | –
Nc1ncnc(C#Cc2ccc(N3CCOCC3)nc2)c1-c1cc2ccccc2s1 | 0.4 nM | 100 nM | Activity (Rattus norvegicus [5]): 49%
CN(C)c1ccc(C#Cc2ncnc(N)c2-c2ccc(N(C)C)cc2)cc1 | 5 nM | 240 nM | –
Nc1ncnc2nc(-c3ccc(N4CCOCC4)nc3)cc(-c3cccc(Br)c3)c12 | – | – | Vd [6]: 1 L/kg; Cmax [8]: 550 ng/mL
CC(C)(C)OC(=O)N1CCN(c2ccc(C#Cc3ncnc(N)c3-c3ccc(Cl)cc3)cn2)CC1 | 62 nM | > 1000 nM | –
CN(C)c1ccc(C#Cc2ncnc(NCCc3c[nH]c4ccccc34)c2-c2ccc(Cl)cc2)cc1 | 38 nM | > 1000 nM | –
CN(C)c1ccc(C#Cc2ncnc(N(C)C)c2-c2ccc(Cl)cc2)cc1 | 300 nM | > 1000 nM | –

SMILES | IC50 (Adenosine kinase [7]) | IC50 (Adenosine kinase [10]) | further results
Nc1ncnc(C#Cc2ccc(N3CCOCC3)nc2)c1-c1cc2ccccc2o1 | 1 nM | 123 nM | Activity (Rattus norvegicus [5]): 36%
CN(C)c1cc(N2CCOCC2)ncc1C#Cc1ncnc(N)c1-c1ccc2c(c1)OCO2 | 72 nM | 215 nM | –
CC(C)c1ccc(C#Cc2ncnc(N)c2-c2ccc(Cl)cc2)cc1 | 50 nM | > 1000 nM | –
CN(C)c1ccc(C#Cc2ncnc(N)c2-c2ccc3c(c2)OCO3)cc1 | – | 250 nM | –
COCCN(C)c1cc(N2CCOCC2)ncc1C#Cc1ncnc(N)c1-c1ccc2c(c1)OCO2 | 101 nM | 198 nM | –
COCCN(C)c1ccc(C#Cc2ncnc(N)c2-c2ccc(Cl)cc2)cn1 | 1 nM | 80 nM | Activity (Rattus norvegicus [5]): 48%
CN(C)c1ccc(C#Cc2ncnc(NCCc3c[nH]cn3)c2-c2ccc(Cl)cc2)cc1 | 80 nM | > 1000 nM | –
Nc1ncnc(C#Cc2ccc(N3CCOCC3)nc2)c1-c1cccs1 | 13 nM | 167 nM | Activity (Rattus norvegicus [5]): 44%
CN(C)c1ccc(C#Cc2ncnc(N)c2-c2cccc(Cl)c2)cc1 | 10 nM | 550 nM | –
CN(C)c1cc(C#Cc2ncnc(N)c2-c2ccc3c(c2)OCO3)cnc1N1CCOCC1 | 26 nM | 161 nM | Activity (Rattus norvegicus [12]): inactive
Nc1ncnc(C#Cc2ccccn2)c1-c1ccc(Cl)cc1 | 500 nM | > 1000 nM | –
CC(C)NC(=O)Nc1cc(C#Cc2ncnc(N)c2-c2ccc3c(c2)OCO3)cnc1N1CCOCC1 | 18 nM | 88 nM | –
Nc1ncnc(C#Cc2ccc(N3CCOCC3)nc2)c1-c1ccc2c(c1)OCO2 | 10 nM | 120 nM | Activity (Rattus norvegicus [5]): 47%
CN(C)c1ccc(C#Cc2cc(N)ncn2)cc1 | > 1000 nM | – | –
COc1ccc(-c2c(N)ncnc2C#Cc2ccc(N(C)C)cc2)cc1OC | 20 nM | 500 nM | –
Nc1ncnc(C#Cc2ccc(N3CCOCC3)nc2)c1-c1ccsc1 | 38 nM | 212 nM | –
Nc1ncnc(C#Cc2ccc(N3CCOCC3)nn2)c1-c1ccc(Cl)cc1 | 45 nM | 700 nM | –
CN(C)c1ccc(C#Cc2cc(NCc3ccccc3)ncn2)cc1 | > 1000 nM | – | –
Nc1ncnc(C#Cc2cncc(N3CCOCC3)c2)c1-c1ccc(Cl)cc1 | 8 nM | 110 nM | Activity (Rattus norvegicus [5]): 49%
